Measurements from patent US7598279B2, “Neurotherapeutic azole compounds” (SK Holdings Co., Ltd., priority 2005, dated 2009).

Experiments:
Format in all cases: in vivo
[1] = system: mice; test: Forced swimming test (FST); details: 30 min after dosing
Experimental: The “Forced swimming test (FST)” for antidepressant activity was also carried out. The procedure employed in the FST for antidepressant is as follows. The compounds to be tested were dissolved in 30% PEG400 and administered ip and po into animals. 30 min later, the immobility time during post 4 minutes of 6 minutes experiment time was measured.

[2] = system: mice; test: Pentylenetetrazol (PTZ)-induced clonic seizure test; details: Mus musculus; for responders at 30 mg/kg: read-out: Mice PTZ Protection % (mpk/peak time)
Experimental: The “Pentylenetetrazol (PTZ)” test for anticonvulsant and antianxiety activity was also carried out.
The procedure employed in the PTZ test is as follows. The compounds to be tested were dissolved in 30% PEG400 and administered ip and po into animals. After the designated number of hours, each animal was injected subcutaneously with 100 mg/kg of PTZ (CD97 dose) and observed for up to 30 minutes for the presence or absence of clonic spasms over 5 seconds. Median efficacy dose (ED50) levels were determined using three different dose levels with 8 mice in each group.

[3] = system: mice; test: Maximal ElectroShock (MES)-induced tonic seizure test; details: Mus musculus; for ED50: read-out: Mice MES ED50 (mpk/peak time); for responders at 30 mg/kg: read-out: Mice MES Protection % (mpk/peak time)
Experimental: The “Maximal ElectroShock (MES)” test is a well-established pharmacological screening method for anticonvulsants against tonic-clonic seizures. The procedure employed in the MES test for anticonvulsants is as follows. The compounds to be tested were dissolved in 30% PEG400 and administered ip and po into animals. After the designated number of hours, maximal electroshock (50 mA, 60 Hz, 0.2 sec) was applied into animals via corneal electrodes using IITC Life Science model 11A Shocker. […] Median efficacy dose (ED50) levels were determined using three different dose levels with at least 8 mice in each group.

[4] = 3 mice, 30 mpk, 0.5, 1, 2, 4 hr

In the case of `O=C(OC(Cn1ncnn1)c1ccc(Cl)cc1Cl)N1CCC(Cc2ccc(Cl)c(Cl)c2)CC1` (stereo not shown) [Example 194, 4-(3,4-Dichloro-benzyl)-piperidine-1-carboxylic acid 1-(2,4-dichloro-phenyl)-2-tetrazol-2-yl-ethyl ester], the “Mice FST Reduction of immobility %” value ([1]; dose not given) is reported as 53.4%, the responders at 30 mg/kg ([2]; 2 h) is reported as 33.3% and the ED50 ([3]; 0.5 h) is reported as 11.9 mg/kg.
With `NC(=O)OC(Cc1ccccc1)Cn1ncnn1` (stereo not shown) [Example 116, Carbamic acid 2-phenyl-1-tetrazol-2-ylmethyl-ethyl ester] the “Mice FST Reduction of immobility %” value ([1]; dose not given) was 30.0%, the responders at 30 mg/kg ([2]; 2 h) was 33.3% and the responders at 30 mg/kg ([3]; 1 h) was 100%.
With `O=C(OC(Cn1ncnn1)c1ccc(Cl)c(Cl)c1)N1CCC(Cc2ccc(Cl)c(Cl)c2)CC1` (stereo not shown) [Example 195, 4-(3,4-Dichloro-benzyl)-piperidine-1-carboxylic acid 1-(3,4-dichloro-phenyl)-2-tetrazol-2-yl-ethyl ester] the “Mice FST Reduction of immobility %” value ([1]; dose not given) was 31.9%, the responders at 30 mg/kg ([2]; 3 mice, 30 mpk, 0.5, 1 hr) was 33.3% and the ED50 ([3]; mice, peak time 0.5 hr) was 15.3 mg/kg.
With `NC(=O)O[C@@H](Cn1ncnn1)c1ccc(Cl)cc1` [Example 42, Carbamic acid (R)-1-(4-chloro-phenyl)-2-tetrazol-2-yl-ethyl ester] the “Mice FST Reduction of immobility %” value ([1]; dose not given) was 44.1% and the ED50 ([3]; 0.5 h) was 18.2 mg/kg.
`NC(=O)O[C@@H](Cn1nccn1)c1ccc(Cl)c(Cl)c1` [Example 91, Carbamic acid (R)-1-(3,4-dichloro-phenyl)-2-[1,2,3]triazol-2-yl-ethyl ester] was tested, and the “Mice FST Reduction of immobility %” value ([1]; dose not given) was 94.0% and the ED50 ([3]; 0.5 h) was 16 mg/kg.
`O=C(OC(COc1ccc(Cl)c(Cl)c1)Cn1nccn1)N1CCC(CCc2ccccc2)C1` (stereo not shown) [Example 207, 3-Phenethyl-pyrrolidine-1-carboxylic acid 2-(3,4-dichloro-phenoxy)-1-[1,2,3]triazol-2-ylmethyl-ethyl ester] was tested, and the “Mice FST Reduction of immobility %” value ([1]; dose not given) was 43.4% and the responders at 30 mg/kg ([3]; 3 mice, 30 mpk, 0.5, 1, 4 hr) was 100%.
For `O=C(OC(Cn1cnnn1)c1ccccc1Cl)N1CCC(Cc2ccc(Cl)c(Cl)c2)CC1` (stereo not shown) [Example 201, 4-(3,4-Dichloro-benzyl)-piperidine-1-carboxylic acid 1-(2-chloro-phenyl)-2-tetrazol-1-yl-ethyl ester], the “Mice FST Reduction of immobility %” value ([1]; dose not given) was 54.0% and the responders at 30 mg/kg ([3]; 3 mice, 30 mpk, 1, 2, 4 hr) was 100%.
In the case of `O=C(OC(Cn1ncnn1)c1ccccc1Cl)N1CCC(Cc2ccc(Cl)c(Cl)c2)CC1` (stereo not shown) [Example 175, 4-(3,4-Dichloro-benzyl)-piperidine-1-carboxylic acid 1-(2-chloro-phenyl)-2-tetrazol-2-yl-ethyl ester], the “Mice FST Reduction of immobility %” value [1] is reported as “N.S”, the responders at 30 mg/kg ([2]; 4 h) is reported as 66.7% and the ED50 ([3]; 0.5 h) is reported as 20.2 mg/kg.
`O=C(OC(Cn1ncnn1)c1cc(Cl)ccc1Cl)N1CCC(Cc2ccc(Cl)c(Cl)c2)CC1` (stereo not shown) [Example 191, 4-(3,4-Dichloro-benzyl)-piperidine-1-carboxylic acid 1-(2,5-dichloro-phenyl)-2-tetrazol-2-yl-ethyl ester] was tested, and the “Mice FST Reduction of immobility %” value ([1]; dose not given) was 50.6%, the ED50 ([2]; sc, read-out: Mice PTZ ED50 (mpk/peak time)) was over 30 mg/kg and the responders at 30 mg/kg ([3]; 4 h) was 66.7%.
`NC(=O)OC(Cn1ncnn1)c1ccc(Cl)cc1` (stereo not shown) [Example 5, Carbamic acid 1-(4-chloro-phenyl)-2-tetrazol-2-yl-ethyl ester] was tested, and the “Mice FST Reduction of immobility %” value ([1]; dose not given) was 71.7% and the ED50 ([3]; 0.5 h) was 18.4 mg/kg.
For `O=C(OC(Cn1ncnn1)c1ccc(Cl)c(Cl)c1)N1CCC(CCc2ccccc2)C1` (stereo not shown) [Example 204, 3-Phenethyl-pyrrolidine-1-carboxylic acid 1-(3,4-dichloro-phenyl)-2-tetrazol-2-yl-ethyl ester], the “Mice FST Reduction of immobility %” value ([1]; dose not given) was 51.2% and the responders at 30 mg/kg ([3]; 3 mice, 30 mpk, 0.5, 1, 2 hr) was 100%.
`NC(=O)OC(Cn1nccn1)c1ccc(Cl)cc1` (stereo not shown) [Example 10, Carbamic acid 1-(4-chloro-phenyl)-2-[1,2,3]triazol-2-yl-ethyl ester] was tested, and the “Mice FST Reduction of immobility %” value ([1]; dose not given) was 45.1% and the ED50 ([3]; 0.5 h) was 21.3 mg/kg.
With `O=C(OC(Cn1ncnn1)c1ccccc1Cl)N1CCC(Cc2cc(C(F)(F)F)cc(C(F)(F)F)c2)CC1` (stereo not shown) [Example 197, 4-(3,5-Bis-trifluoromethyl-benzyl)-piperidine-1-carboxylic acid 1-(2-chloro-phenyl)-2-tetrazol-2-yl-ethyl ester] the “Mice FST Reduction of immobility %” value [1] was “N.S”, the responders at 30 mg/kg ([2]; 4 h) was 100% and the ED50 ([3]; 0.5 h) was 6.3 mg/kg.
`O=C(OC(Cn1ncnn1)c1ccccc1Cl)N1CCC(Cc2ccc(Cl)cc2)C1` (stereo not shown) [Example 196, 3-(4-Chloro-benzyl)-pyrrolidine-1-carboxylic acid 1-(2-chloro-phenyl)-2-tetrazol-2-yl-ethyl ester] was tested, and the “Mice FST Reduction of immobility %” value [1] was “N.S”, the responders at 30 mg/kg ([2]; 4 h) was 33.3% and the ED50 ([3]; 0.5 h) was 15.3 mg/kg.
With `O=C(OC(Cn1ncnn1)c1ccccc1Cl)N1CCC(CCc2ccccc2)C1` (stereo not shown) [Example 181, 3-Phenethyl-pyrrolidine-1-carboxylic acid 1-(2-chloro-phenyl)-2-tetrazol-2-yl-ethyl ester] the “Mice FST Reduction of immobility %” value ([1]; dose not given) was 30.6%, the responders at 30 mg/kg ([2]; 4 h) was 33.3% and the ED50 ([3]; 0.5 h) was 12.1 mg/kg.
Work on `NC(=O)OC(Cn1nccn1)c1ccccc1C(F)(F)F` (stereo not shown) [Example 39, Carbamic acid 2-[1,2,3]triazol-2-yl-1-(2-trifluoromethyl-phenyl)-ethyl ester] yielded an ED50 ([3]; 0.5 h) of 12.5 mg/kg.
`O=C(OC(COc1ccc(Cl)cc1Cl)Cn1nccn1)N1CCC(CCc2ccccc2)C1` (stereo not shown) [Example 206, 3-Phenethyl-pyrrolidine-1-carboxylic acid 2-(2,4-dichloro-phenoxy)-1-[1,2,3]triazol-2-ylmethyl-ethyl ester] was tested, and the “Mice FST Reduction of immobility %” value ([1]; dose not given) was 51.4%, the responders at 30 mg/kg ([2]; 3 mice, 30 mpk, 2, 4 hr) was 66.7% and the responders at 30 mg/kg [3, 4] was 100%.
For `O=C(OC(Cn1ncnn1)c1ccc(Cl)cc1Cl)N1CCC(CCc2ccccc2)C1` (stereo not shown) [Example 203, 3-Phenethyl-pyrrolidine-1-carboxylic acid 1-(2,4-dichloro-phenyl)-2-tetrazol-2-yl-ethyl ester], the “Mice FST Reduction of immobility %” value ([1]; dose not given) was 44.0% and the responders at 30 mg/kg [3, 4] was 100%.
`O=C(OC(COc1cc(Cl)ccc1Cl)Cn1ncnn1)N1CCC(CCc2ccccc2)C1` (stereo not shown) [Example 208, 3-Phenethyl-pyrrolidine-1-carboxylic acid 2-(2,5-dichloro-phenoxy)-1-tetrazol-2-ylmethyl-ethyl ester] was tested, and the “Mice FST Reduction of immobility %” value ([1]; dose not given) was 48.2%, the responders at 30 mg/kg ([2]; 3 mice, 30 mpk, 4 hr) was 33.3% and the responders at 30 mg/kg ([3]; 3 mice, 30 mpk, 0.5, 1, 4 hr) was 100%.
In the case of `O=C(OC(Cn1ncnn1)c1cc(Cl)ccc1Cl)N1CCC(CCc2ccccc2)C1` (stereo not shown) [Example 202, 3-Phenethyl-pyrrolidine-1-carboxylic acid 1-(2,5-dichloro-phenyl)-2-tetrazol-2-yl-ethyl ester], the “Mice FST Reduction of immobility %” value ([1]; dose not given) is reported as 81.2%, the responders at 30 mg/kg ([2]; 3 mice, 30 mpk, 1, 4 hr) is reported as 33.3% and the ED50 ([3]; mice, peak time 0.5 hr) is reported as 11.4 mg/kg.
In the case of `O=C(OC(Cn1nccn1)c1ccccc1Cl)N1CCC(Cc2ccc(Cl)c(Cl)c2)CC1` (stereo not shown) [Example 200, 4-(3,4-Dichloro-benzyl)-piperidine-1-carboxylic acid 1-(2-chloro-phenyl)-2-[1,2,3]triazol-2-yl-ethyl ester], the “Mice FST Reduction of immobility %” value ([1]; dose not given) is reported as 25.9% and the responders at 30 mg/kg ([3]; 3 mice, 30 mpk, 0.5, 4 hr) is reported as 100%.
